In paper PMC7851014 (Investigational New Drugs, 2020):

What was measured:
[1] = Human ibrutinib metabolism during CYP3A4 inhibition (patient C, plasma, concomitant voriconazole); details: for half-life / AUC(0-t): human, plasma, oral; for AUC(0-t): 140 mg; for Exposure relative to Sum of quantified compounds / Exposure relative to ibrutinib: patient C, AUC0-24h,ss, concomitant voriconazole
Description: (§1) For analysis, 200 μL acetonitrile containing the internal standards was added to 100 μL sample. After mixing and centrifuging, 200 μL supernatant was transferred, and thereafter the solvent was partially evaporated. Before the samples were analyzed by ultra-high-performance liquid chromatography with mass spectrometer detection [21], 100 μL of mobile phase (water:acetonitrile:formic acid, 90:10:0.1 (v:v:v)) was added.
Time-concentration data of three patients were analyzed. […] When no time was available at all, the sample was omitted. […] Pharmacokinetic (PK) data was analyzed using the PKNCA package (version 0.8.1) [22] for the statistical software R (version 3.4.2) [23] and RStudio (version 1.1.383) [24].

[2] = Ibrutinib and SMT-conjugate pharmacokinetics in human subjects (plasma of patients A and B); details: for Tmax / half-life / concentration at 1.4 h / concentration at 0.5 h / concentration at 0.8 h / concentration at 22.7 h / concentration at 22.2 h / concentration at 22.6 h / concentration at 2.5 h / concentration at 3.8 h / concentration at 1.5 h / concentration at 23.3 h / concentration at 2.8 h / concentration at 4.1 h / concentration at 4.4 h / concentration at 2.4 h / concentration at 3.9 h: human; for concentration at 2.5 h: sample ID 13, T 2.5 h; for concentration at 2.5 h / concentration at 3.8 h / concentration at 2.8 h / concentration at 4.1 h / concentration at 4.4 h / concentration at 2.4 h / concentration at 3.9 h: group max; for concentration at 2.8 h: sample ID 4, T 2.8 h; for concentration at 2.4 h: sample ID 12, T 2.4 h; for concentration at 3.9 h: sample ID 17, T 3.9 h
Description: as §1
When no time was available at all, the sample was omitted. […] Pharmacokinetic (PK) data was analyzed using the PKNCA package (version 0.8.1) [22] for the statistical software R (version 3.4.2) [23] and RStudio (version 1.1.383) [24].

[3] = Metabolism of IGSH in culture medium; assay type: in vitro ADME
Description: During ibrutinib incubations, IGSH was formed intracellularly and transported extracellularly where it was metabolized to ICGS and further to ICYS. IGSH and ICYS were mainly found intracellularly. […] Medium composition influences the metabolism of IGSH. IGSH was metabolized 32% faster in medium with 10% calf serum, when compared to serum-free samples. Medium that was pre-incubated with ciPTEC for 48 h (conditioned medium) was included in the experiments to investigate the possible role of secreted enzymes in the medium. The metabolism of IGSH to ICGS appeared to be 36% faster in conditioned medium.

[4] = test system: ɣ-GT from equine kidney; assay: ɣ-glutamyl transferase assay (conversion of IGSH to ICGS); assay type: biochemical; details: approximate kinetic parameters
Description: IGSH was incubated with 50 mU/L ɣ-GT in a concentration range of 10–10,000 nM in phosphate buffer (100 mM, pH 7.4) at 37 °C. Michaelis-Menten kinetics were calculated by Eadie-Hofstee transformation.

[5] = Half-life of IGSH in human plasma; assay type: in vitro ADME; details: 37 °C, in vitro
[6] = test system: ciPTEC
Description: Medium and cell lysate samples were taken at 1, 2, 3 and 4 h. Each time point was measured in duplicate. Preincubation (t0) analyte concentrations in medium were also analyzed.

[7] = 420 mg, patient A, sample ID 2, T 1.4 h, 1xdd 420mg, group abs
[8] = 420 mg, patient A, sample ID 5, T 0.5 h, 1xdd 420mg, group abs
[9] = 420 mg, patient A, sample ID 6, T 0.8 h, 1xdd 420mg, group abs
[10] = 420 mg, patient A, sample ID 8, T 22.7 h, 1xdd 420mg, group trough
[11] = 420 mg, patient A, sample ID 10, T 22.2 h, 1xdd 420mg, group trough
[12] = 420 mg, patient A, sample ID 11, T 22.6 h, 1xdd 420mg, group trough
[13] = 420 mg, patient A, sample ID 14, T 3.8 h, 1xdd 420mg
[14] = 420 mg, patient A, sample ID 16, T 1.5 h, 1xdd 420mg, group abs
[15] = 420 mg, patient A, sample ID 19, T 23.3 h, 1xdd 420mg, group trough
[16] = 420 mg, patient A, sample ID 21, T 0.8 h, 1xdd 420mg, group abs
[17] = 560 mg, patient A, sample ID 3, T 0.8 h, 1xdd 560mg, group abs
[18] = 560 mg, patient B, sample ID 7, T 4.1 h, 1xdd 560mg
[19] = 560 mg, patient B, sample ID 9, T 4.4 h, 1xdd 560mg
[20] = 560 mg, patient B, sample ID 20, T 3.8 h, 1xdd 560mg
[21] = 560 mg, patient B, sample ID 23, T 4.1 h, 1xdd 560mg
[22] = 560 mg, patient B, sample ID 24, T 4.4 h, 1xdd 560mg
[23] = patient A, sample ID 15, T NA, 1xdd 420mg, omitted (no group)
[24] = patient A, sample ID 22, T NA, 1xdd 420mg, omitted (no group)

Row | Compound | half-life [1] [h] | AUC(0-t) [1] [µM·h] | Exposure relative to Sum of quantified compounds [1] [%] | Exposure relative to ibrutinib [1] [%] | Tmax [2] [h] | half-life [2] [h] | concentration at 1.4 h [2, 7] [nM] | concentration at 2.5 h ([2]; 420 mg, patient A, 1xdd 420mg) [nM] | concentration at 3.8 h [2, 13] [nM] | concentration at 0.8 h [2, 17] [nM] | concentration at 2.8 h ([2]; 560 mg, patient B, 1xdd 560mg) [nM] | concentration at 4.1 h [2, 18] [nM] | concentration at 4.4 h [2, 19] [nM] | concentration at 2.4 h ([2]; 560 mg, patient B, 1xdd 560mg) [nM] | concentration at 3.9 h ([2]; 560 mg, patient B, 1xdd 560mg) [nM] | concentration at 3.8 h [2, 20] [nM] | concentration at 4.1 h [2, 21] [nM] | concentration at 4.4 h [2, 22] [nM] | Concentration [2, 23] | Concentration [2, 24] | also measured
1 | Nc1ncnc2c1c(-c1ccc(Oc3ccccc3)cc1)nn2[C@@H]1CCCN(C(=O)C(O)CO)C1 (stereo partly shown) [DHI, dihydrodiol-ibrutinib] | 59 | 0.149 | 23 | 46 | 3.9 | 6.1 | 43.9 | 404 | 195 | 17.5 | 346 | 523 | 393 | 450 | 542 | 524 | 468 | 484 | 59.3 nM | < LLOQ | concentration at 0.5 h [2, 8]: 51.6 nM; concentration at 0.8 h [2, 9]: 48.3 nM; concentration at 22.7 h [2, 10]: 86.6 nM; concentration at 22.2 h [2, 11]: 90.7 nM; concentration at 22.6 h [2, 12]: 45.3 nM; concentration at 1.5 h [2, 14]: 24 nM; concentration at 23.3 h [2, 15]: 30.5 nM; concentration at 0.8 h [2, 16]: 188 nM
2 | Nc1ncnc2c1c(-c1ccc(Oc3ccccc3)cc1)nn2[C@@H]1CCCN(C(=O)CCSC[C@H](N)C(=O)NCC(=O)O)C1 [ICGS] | 40.1 | 0.0949 | 14 | 29 | 2.6 | 3 | 6.7 | 412 | 72.5 | 9.7 | 160 | 191 | 88.1 | 73.2 | 226 | 78 | 239 | 160 | 5.1 nM | < LLOQ | concentration at 0.5 h [2, 8]: 5.4 nM; concentration at 0.8 h [2, 9]: 7.3 nM; concentration at 22.7 h [2, 10]: 5.6 nM; concentration at 22.2 h [2, 11]: 3.7 nM; concentration at 22.6 h [2, 12]: 3 nM; concentration at 1.5 h [2, 14]: 2.2 nM; concentration at 23.3 h [2, 15]: 0.6 nM; concentration at 0.8 h [2, 16]: 11.9 nM
3 | CSCCC(=O)N1CCC[C@@H](n2nc(-c3ccc(Oc4ccccc4)cc3)c3c(N)ncnc32)C1 [S-methyl-ibrutinib] |  |  |  |  |  |  |  |  |  |  |  |  |  |  |  |  |  |  |  |  | detection as secondary bioactivation-metabolite of ICYS ([6]; ciPTEC, after 48 h with ibrutinib): detected

Continued, in another order:

Row | half-life [1] [h] | AUC(0-t) [1] [µM·h] | Exposure relative to Sum of quantified compounds [1] [%] | Exposure relative to ibrutinib [1] [%] | Tmax [2] [h] | half-life [2] [h] | concentration at 1.4 h [2, 7] [nM] | concentration at 2.5 h ([2]; 420 mg, patient A, 1xdd 420mg) [nM] | concentration at 3.8 h [2, 13] [nM] | concentration at 0.8 h [2, 17] [nM] | concentration at 2.8 h ([2]; 560 mg, patient B, 1xdd 560mg) [nM] | concentration at 4.1 h [2, 18] [nM] | concentration at 4.4 h [2, 19] [nM] | concentration at 2.4 h ([2]; 560 mg, patient B, 1xdd 560mg) [nM] | concentration at 3.9 h ([2]; 560 mg, patient B, 1xdd 560mg) [nM] | concentration at 3.8 h [2, 20] [nM] | concentration at 4.1 h [2, 21] [nM] | concentration at 4.4 h [2, 22] [nM] | Concentration [2, 23] | Concentration [2, 24] | Compound | also measured
4 | 78.3 | 0.0877 | 13 | 27 | 4.4 | 4.2 | 5 | 186 | 32.1 | 3.9 | 92.8 | 170 | 89.2 | 210 | 143 | 78.7 | 194 | 210 | 12.1 nM | < LLOQ | Nc1ncnc2c1c(-c1ccc(Oc3ccccc3)cc1)nn2[C@@H]1CCCN(C(=O)CCSC[C@H](N)C(=O)O)C1 [ICYS] | concentration at 0.5 h [2, 8]: 5.1 nM; concentration at 0.8 h [2, 9]: 5.6 nM; concentration at 22.7 h [2, 10]: 6.4 nM; concentration at 22.2 h [2, 11]: 5 nM; concentration at 22.6 h [2, 12]: 4.7 nM; concentration at 1.5 h [2, 14]: 2.3 nM; concentration at 23.3 h [2, 15]: 2.6 nM; concentration at 0.8 h [2, 16]: 12 nM
5 |  |  |  |  | 2.8 |  |  | 1.5 | 0.5 | 0.5 | 3.5 | 1.5 | 0.8 | 0.8 | 1.9 | 0.8 | 2.2 | 1.4 | < LLOQ | < LLOQ | Nc1ncnc2c1c(-c1ccc(Oc3ccccc3)cc1)nn2[C@@H]1CCCN(C(=O)CCSC[C@H](NC(=O)CC[C@H](N)C(=O)O)C(=O)NCC(=O)O)C1 [IGSH] | metabolism of IGSH to ICGS faster ([3]; conditioned medium (pre-incubated with ciPTEC for 48 h)): 36%; IGSH metabolized faster ([3]; medium with 10% calf serum compared to serum-free samples): 32%; Concentration ([2]; patient A, sample ID 2, T 1.4 h, 1xdd 420mg, group abs): < LLOQ; Concentration ([2]; patient A, sample ID 5, T 0.5 h, 1xdd 420mg, group abs): < LLOQ; Concentration ([2]; patient A, sample ID 6, T 0.8 h, 1xdd 420mg, group abs): < LLOQ; Concentration ([2]; patient A, sample ID 8, T 22.7 h, 1xdd 420mg, group trough): < LLOQ; Concentration ([2]; patient A, sample ID 10, T 22.2 h, 1xdd 420mg, group trough): < LLOQ; Concentration ([2]; patient A, sample ID 11, T 22.6 h, 1xdd 420mg, group trough): < LLOQ; Concentration ([2]; patient A, sample ID 16, T 1.5 h, 1xdd 420mg, group abs): < LLOQ; Concentration ([2]; patient A, sample ID 19, T 23.3 h, 1xdd 420mg, group trough): < LLOQ; Concentration ([2]; patient A, sample ID 21, T 0.8 h, 1xdd 420mg, group abs): < LLOQ; Ctrough ([2]; patients A and B, 'trough' samples n = 4, mean ± SD (range)): <0.5 nM; Km [4]: 0.588 µM; Vmax [4]: 25.8 μmol∙min^−1∙U^−1; half-life at 500 nM [5]: 0.5 h; uptake into ciPTEC ([6]; incubating with IGSH (1 μM) directly for 4 h): no uptake
